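These data come from cells grown in 96-well plates and exposed to compound for 48 hours at five concentrations. GI50 marks 50% less growth. TGI: total growth inhibition.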
What was measured:
Assay in all cases: growth of human tumour cells (NCI), 48 h; in the data active = GI50 below about 0.43 µM; inactive = the rest
786-0 renal = tested on: 786-0 renal
A498 renal = tested on: A498 renal
A549 NSCLC = tested on: A549 NSCLC
ACHN renal = tested on: ACHN renal
BT-549 breast = tested on: BT-549 breast
CAKI-1 renal = tested on: CAKI-1 renal
CCRF-CEM leukemia = tested on: CCRF-CEM leukemia
COLO 205 colon = tested on: COLO 205 colon
DU-145 prostate = tested on: DU-145 prostate
EKVX NSCLC = tested on: EKVX NSCLC
HCC-2998 colon = tested on: HCC-2998 colon
HCT-116 colon = tested on: HCT-116 colon
HCT-15 colon = tested on: HCT-15 colon
HL-60(TB) leukemia = tested on: HL-60(TB) leukemia
HOP-62 NSCLC = tested on: HOP-62 NSCLC
HOP-92 NSCLC = tested on: HOP-92 NSCLC
HS 578T breast = tested on: HS 578T breast
HT29 colon = tested on: HT29 colon
IGROV1 ovarian = tested on: IGROV1 ovarian
K-562 leukemia = tested on: K-562 leukemia
KM12 colon = tested on: KM12 colon
LOX IMVI melanoma = tested on: LOX IMVI melanoma
M14 melanoma = tested on: M14 melanoma
MALME-3M melanoma = tested on: MALME-3M melanoma
MCF7 breast = tested on: MCF7 breast
MDA-MB-231 breast = tested on: MDA-MB-231 breast
MDA-MB-435 = tested on: MDA-MB-435
MOLT-4 leukemia = tested on: MOLT-4 leukemia
NCI-H226 lung = tested on: NCI-H226 lung
NCI-H460 lung = tested on: NCI-H460 lung
NCI-H522 lung = tested on: NCI-H522 lung
NCI/ADR-RES ovarian = tested on: NCI/ADR-RES ovarian
OVCAR-3 ovarian = tested on: OVCAR-3 ovarian
OVCAR-4 ovarian = tested on: OVCAR-4 ovarian
OVCAR-5 ovarian = tested on: OVCAR-5 ovarian
OVCAR-8 ovarian = tested on: OVCAR-8 ovarian
PC-3 prostate = tested on: PC-3 prostate
RPMI-8226 leukemia = tested on: RPMI-8226 leukemia
RXF 393 renal = tested on: RXF 393 renal
SF-268 CNS = tested on: SF-268 CNS
SF-295 CNS = tested on: SF-295 CNS
SF-539 CNS = tested on: SF-539 CNS
SK-MEL-2 melanoma = tested on: SK-MEL-2 melanoma
SK-MEL-28 melanoma = tested on: SK-MEL-28 melanoma
SK-MEL-5 melanoma = tested on: SK-MEL-5 melanoma
SK-OV-3 ovarian = tested on: SK-OV-3 ovarian
SN12C renal = tested on: SN12C renal
SNB-19 CNS = tested on: SNB-19 CNS
SNB-75 CNS = tested on: SNB-75 CNS
SW-620 colon = tested on: SW-620 colon
T-47D breast = tested on: T-47D breast
TK-10 renal = tested on: TK-10 renal
U251 CNS = tested on: U251 CNS
UACC-257 melanoma = tested on: UACC-257 melanoma
UACC-62 melanoma = tested on: UACC-62 melanoma
UO-31 renal = tested on: UO-31 renal

N#Cc1c(N)nc(N2CCOCC2)c(C#N)c1-c1ccncc1
64.3 µM: TGI (HCC-2998 colon)
39.5 µM: TGI (IGROV1 ovarian)
98.1 µM: TGI (MALME-3M melanoma)
> 100 µM: TGI (786-0 renal) | TGI (A549 NSCLC) | TGI (ACHN renal) | TGI (BT-549 breast) | TGI (CAKI-1 renal) | TGI (CCRF-CEM leukemia) | TGI (COLO 205 colon) | TGI (DU-145 prostate) | TGI (EKVX NSCLC) | TGI (HCT-116 colon) | TGI (HCT-15 colon) | TGI (HL-60(TB) leukemia) | TGI (HOP-62 NSCLC) | TGI (HOP-92 NSCLC) | TGI (HS 578T breast) | TGI (HT29 colon) | TGI (K-562 leukemia) | TGI (KM12 colon) | TGI (LOX IMVI melanoma) | TGI (M14 melanoma) | TGI (MCF7 breast) | TGI (MDA-MB-231 breast) | TGI (MDA-MB-435) | TGI (MOLT-4 leukemia) | TGI (NCI-H226 lung) | TGI (NCI-H460 lung) | TGI (NCI-H522 lung) | TGI (NCI/ADR-RES ovarian) | TGI (OVCAR-3 ovarian) | TGI (OVCAR-4 ovarian) | TGI (OVCAR-5 ovarian) | TGI (OVCAR-8 ovarian) | TGI (PC-3 prostate) | TGI (RPMI-8226 leukemia) | TGI (RXF 393 renal) | TGI (SF-268 CNS) | TGI (SF-295 CNS) | TGI (SF-539 CNS) | TGI (SK-MEL-2 melanoma) | TGI (SK-MEL-28 melanoma) | TGI (SK-MEL-5 melanoma) | TGI (SK-OV-3 ovarian) | TGI (SN12C renal) | TGI (SNB-19 CNS) | TGI (SNB-75 CNS) | TGI (SW-620 colon) | TGI (TK-10 renal) | TGI (U251 CNS) | TGI (UACC-257 melanoma) | TGI (UACC-62 melanoma) | TGI (UO-31 renal)
51.7 µM: TGI (T-47D breast)
inactive: GI50 (786-0 renal) 95.7 µM | GI50 (A498 renal) 18.6 µM | GI50 (A549 NSCLC) > 100 µM | GI50 (ACHN renal) 40.7 µM | GI50 (BT-549 breast) 95.8 µM | GI50 (CAKI-1 renal) 49.1 µM | GI50 (CCRF-CEM leukemia) > 100 µM | GI50 (COLO 205 colon) > 100 µM | GI50 (DU-145 prostate) > 100 µM | GI50 (EKVX NSCLC) 66.7 µM | GI50 (HCC-2998 colon) 13.3 µM | GI50 (HCT-116 colon) > 100 µM | GI50 (HCT-15 colon) > 100 µM | GI50 (HL-60(TB) leukemia) 62.9 µM | GI50 (HOP-62 NSCLC) 29.6 µM | GI50 (HOP-92 NSCLC) 31.7 µM | GI50 (HS 578T breast) 38.3 µM | GI50 (HT29 colon) > 100 µM | GI50 (IGROV1 ovarian) 12.3 µM | GI50 (K-562 leukemia) > 100 µM | GI50 (KM12 colon) > 100 µM | GI50 (LOX IMVI melanoma) 80.1 µM | GI50 (M14 melanoma) > 100 µM | GI50 (MALME-3M melanoma) 9.04 µM | GI50 (MCF7 breast) 34.5 µM | GI50 (MDA-MB-231 breast) 21.6 µM | GI50 (MDA-MB-435) > 100 µM | GI50 (MOLT-4 leukemia) > 100 µM | GI50 (NCI-H226 lung) 75.9 µM | GI50 (NCI-H460 lung) 98.1 µM | GI50 (NCI-H522 lung) 22.7 µM | GI50 (NCI/ADR-RES ovarian) > 100 µM | GI50 (OVCAR-3 ovarian) 36.4 µM | GI50 (OVCAR-4 ovarian) > 100 µM | GI50 (OVCAR-5 ovarian) 27 µM | GI50 (OVCAR-8 ovarian) > 100 µM | GI50 (PC-3 prostate) 32 µM | GI50 (RPMI-8226 leukemia) > 100 µM | GI50 (RXF 393 renal) > 100 µM | GI50 (SF-268 CNS) > 100 µM | GI50 (SF-295 CNS) 44.3 µM | GI50 (SF-539 CNS) > 100 µM | GI50 (SK-MEL-2 melanoma) > 100 µM | GI50 (SK-MEL-28 melanoma) > 100 µM | GI50 (SK-MEL-5 melanoma) > 100 µM | GI50 (SK-OV-3 ovarian) 37 µM | GI50 (SN12C renal) 88.6 µM | GI50 (SNB-19 CNS) > 100 µM | GI50 (SNB-75 CNS) 41.4 µM | GI50 (SW-620 colon) > 100 µM | GI50 (T-47D breast) 12.6 µM | GI50 (TK-10 renal) 72.4 µM | GI50 (U251 CNS) > 100 µM | GI50 (UACC-257 melanoma) 46.6 µM | GI50 (UACC-62 melanoma) 27 µM | GI50 (UO-31 renal) 31.3 µM
66.1 µM: TGI (A498 renal)

Reference: PubChem BioAssay (NCI)
